Measurements taken from patent US6534516B1, “Androgen receptor modulator compounds and methods” (Ligand Pharmaceuticals Incorporated, priority 1996, dated 2003).

Experiments:
MR = biological target: T1, MR (Homo sapiens, UniProt P08235); assay: Co-transfection assay, cross-reactivity on MR; format: cell-based
T1 construct: expressed in transfected cells
T1 sequence (P08235 1-984): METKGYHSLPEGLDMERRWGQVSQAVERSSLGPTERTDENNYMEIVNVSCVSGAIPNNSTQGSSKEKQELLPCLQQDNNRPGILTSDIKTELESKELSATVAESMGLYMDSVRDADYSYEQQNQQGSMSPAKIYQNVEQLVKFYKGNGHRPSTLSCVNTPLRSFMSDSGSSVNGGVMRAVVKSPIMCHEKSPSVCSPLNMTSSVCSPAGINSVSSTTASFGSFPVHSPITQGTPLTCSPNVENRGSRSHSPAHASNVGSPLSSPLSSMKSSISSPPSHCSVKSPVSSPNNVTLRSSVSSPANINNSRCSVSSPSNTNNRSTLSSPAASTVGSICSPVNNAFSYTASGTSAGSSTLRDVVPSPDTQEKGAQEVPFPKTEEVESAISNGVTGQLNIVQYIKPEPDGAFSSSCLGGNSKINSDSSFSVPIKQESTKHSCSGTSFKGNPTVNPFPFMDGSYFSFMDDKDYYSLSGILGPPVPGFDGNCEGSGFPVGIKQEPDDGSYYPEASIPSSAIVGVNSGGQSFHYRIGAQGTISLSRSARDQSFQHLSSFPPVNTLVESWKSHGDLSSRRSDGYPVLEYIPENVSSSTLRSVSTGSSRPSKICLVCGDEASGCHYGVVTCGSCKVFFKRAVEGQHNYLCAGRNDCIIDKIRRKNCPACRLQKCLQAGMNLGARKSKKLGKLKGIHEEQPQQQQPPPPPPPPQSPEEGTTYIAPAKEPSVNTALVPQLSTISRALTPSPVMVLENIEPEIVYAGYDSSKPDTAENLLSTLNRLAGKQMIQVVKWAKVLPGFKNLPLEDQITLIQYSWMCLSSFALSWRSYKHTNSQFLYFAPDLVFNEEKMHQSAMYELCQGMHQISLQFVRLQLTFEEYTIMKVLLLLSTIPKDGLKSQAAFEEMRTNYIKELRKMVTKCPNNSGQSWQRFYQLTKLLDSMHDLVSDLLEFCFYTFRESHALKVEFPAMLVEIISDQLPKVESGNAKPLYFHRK

PR = biological target: T2, PR (Homo sapiens, UniProt P06401); assay: cell-based
T2 sequence (P06401 1-933): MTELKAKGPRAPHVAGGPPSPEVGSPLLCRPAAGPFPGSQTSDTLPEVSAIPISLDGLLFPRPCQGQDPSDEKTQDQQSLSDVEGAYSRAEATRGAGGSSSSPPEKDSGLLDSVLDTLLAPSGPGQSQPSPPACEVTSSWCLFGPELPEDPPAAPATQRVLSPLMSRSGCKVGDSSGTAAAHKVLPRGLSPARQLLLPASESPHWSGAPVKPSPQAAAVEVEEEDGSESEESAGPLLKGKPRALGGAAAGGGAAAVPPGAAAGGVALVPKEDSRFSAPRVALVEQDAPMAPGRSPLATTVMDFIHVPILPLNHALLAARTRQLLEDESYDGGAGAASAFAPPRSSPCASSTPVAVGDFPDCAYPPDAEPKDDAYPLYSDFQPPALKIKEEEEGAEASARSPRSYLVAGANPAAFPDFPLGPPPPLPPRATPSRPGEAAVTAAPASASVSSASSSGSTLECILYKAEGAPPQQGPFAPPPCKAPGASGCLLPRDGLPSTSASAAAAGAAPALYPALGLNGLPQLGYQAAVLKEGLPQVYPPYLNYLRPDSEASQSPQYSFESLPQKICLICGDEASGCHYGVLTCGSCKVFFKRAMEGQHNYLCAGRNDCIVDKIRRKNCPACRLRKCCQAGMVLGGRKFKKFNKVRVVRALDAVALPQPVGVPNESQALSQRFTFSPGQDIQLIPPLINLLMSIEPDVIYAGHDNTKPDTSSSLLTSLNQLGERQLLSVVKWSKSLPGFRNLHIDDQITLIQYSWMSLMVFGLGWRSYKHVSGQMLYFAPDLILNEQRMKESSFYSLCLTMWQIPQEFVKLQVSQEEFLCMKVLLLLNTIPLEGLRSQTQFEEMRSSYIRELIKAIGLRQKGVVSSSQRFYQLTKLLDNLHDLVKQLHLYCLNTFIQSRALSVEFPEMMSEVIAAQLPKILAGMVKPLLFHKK

SMILES: Cn1c(=O)cc(C(F)(F)F)c2cc3c(cc21)N1CCCC1(C)CC3 (racemic) [Compound 103, (R/S)-6,7,7a,11-Tetrahydro-1,7a-dimethyl-4-trifluoromethyl-2-pyridono[5,6-g]pyrrolidino[1,2-a]quinoline]
- IC50 (MR): 1.59 µM
- IC50 (PR): 5.94 µM
